We go through 4 molecules from article PMC6130495, “Effect of piplartine and cinnamides on Leishmania amazonensis, Plasmodium falciparum and on peritoneal cells of Swiss mice” (Pharmaceutical Biology, 2017).

Values joined by “and” are separate entries in the source; they are usually repeats but may differ in a detail not shown here. Equal values may be shown once. Read-outs that look alike come from different tables or passages of the source.

The IC50 is the point on the concentration scale where inhibition reaches its midpoint. The inhibition is the drop in the measured response relative to a control, in per cent. Usually CC50 stands for the concentration at which the toxic effect on the cells reaches its halfway point.

Data set [1] concerns L. amazonensis promastigotes. The experiment in a line: Inhibition of L. amazonensis promastigotes, MTT method. In kind it is cell-based, Leishmania amazonensis. The procedure: The MHOM/BR/pH8 strain was transferred to the NNN solid medium (Novy-MacNeal-Nicolle) for 48 h at 24 °C.
(Sigma-Aldrich) method was used. This method evaluates the cell viability by the activity of mitochondrial succinate dehydrogenase enzyme that cleaves the tetrazolium salt to form formazan crystals in living cells. For the cultures of P. falciparum-infected erythrocytes, the IC50 were determined by optical microscopy.
Then, 10 μL of MTT solution (5 mg/mL) was added to all wells and the cultures were re-incubated at the same condition for 4 h, but protected from light. […] The results were expressed in percentage.
On the technique in general: Tetrazolium dyes change colour on reduction, which living cells bring about.

The subject of data set [2] is P. falciparum-infected erythrocytes. The experiment in a line: Growth inhibition of P. falciparum-infected erythrocytes, optical microscopy. The class given is cell-based. As to conditions: Plasmodium falciparum, Erythrocyte; for inhibition at 0.008 µg/mL: positive control, 8 ng/mL. The procedure:
The Pf/Unb169 strain, kept under cryopreservation was culture together with O^+ erythrocytes in RPMI 1640 medium, supplemented with hypoxanthine (0.25 mg/dL), 10% of human serum, and gentamicin ([…]), at 37 °C in air with 5% CO2. For the assays, a suspension with 3% of hematocrit and 0.6% of infected erythrocytes was prepared.
To assess inhibitory or cytotoxic concentrations of the compounds (1–5), able to eliminate 50% of the cells in the cultures of L. amazonensis (IC50) and cytotoxic concentrations (CC50) in the cultures of peritoneal cell, MTT [3-(4,5-dimethylthiazol-2-yl)-2,5-diphenyltetrazolium bromide] (Sigma-Aldrich) method was used. This method evaluates the cell viability by the activity of mitochondrial succinate dehydrogenase enzyme that cleaves the tetrazolium salt to form formazan crystals in living cells. For the cultures of P. falciparum-infected erythrocytes, the IC50 were determined by optical microscopy. The concentrations for the compounds tested were calculated in μg/mL (ranging from 0 to 256 μg/mL), as well their equivalent in […], being: 1 (0 to 806.7 μM), 2 (0 to 833.0 μM), 3 (0 to 923.0 μM), 4 (0 to 832.8 μM) and 5 (0 to 923.1 μM).
A suspension of O^+ human erythrocytes (3% hematocrit and 0.6% of infected erythrocytes) was incubated at 37 °C with 5% of CO2 in air, for 48 or 72 h in RPMI 1640 medium supplemented with 10% human serum, in triplicate, in 96 wells plate, with different concentrations (0 to 256 μg/mL) of compounds (1–5). As positive control, infected erythrocytes were incubated with 8 ng/mL of artesunate (Artemix Ativus, São Paulo, Brazil) and, as negative control, they were incubated exclusively with the diluent (complete RPMI 1640 medium); 50% of the medium, for the cultures incubated for 72 h, was exchanged after 48 h, at the same concentrations as before. After that, 150 μL of the supernatant of the cultures were discarded, and a drop of suspension distended onto slides for microscopy, dried and fixed with methanol, was stained for 15 min with 10% of Giemsa solution (PBS, pH 6.9). The erythrocytes (1000 cells/slide) were analyzed by a single observer with optical microscopy and the results were expressed in percentage of infected cells.
The SI for each amide (1–5) was obtained by dividing the concentration able to eliminate 50% of peritoneal cells (CC50) by the concentration able to inhibit the growth of 50% of the protozoa (IC50). Compounds which presented SI greater than 10 were considered potentially microbicides and safe for the host cells (Bézivin et al. [2003]).

Data set [3] in a line: Cytotoxicity to peritoneal cells, MTT method. The class given is cell-based, Swiss mice. As to conditions: both sexes, Swiss, mouse, peritoneal cells (>99% macrophages), 6 h incubation, read-out: Estimated CC50 peritoneal cell 6 h. Here is the method:
To obtain peritoneal cells, six adult Swiss mice (male and female), weighing 30 ± 6 g, were used. During the experiments, the animals were kept in the Faculty of Medicine, University of Brasilia under ambient temperature, light/dark cycle of 12 h, fed with balanced diet and water ad libitum. The study was approved by the Ethics Committee on Animal Use (CEUA) of the Institute of Biological Sciences at University of Brasilia (Doc. no. 22199/2014).
To assess inhibitory or cytotoxic concentrations of the compounds (1–5), able to eliminate 50% of the cells in the cultures of L. amazonensis (IC50) and cytotoxic concentrations (CC50) in the cultures of peritoneal cell, MTT [3-(4,5-dimethylthiazol-2-yl)-2,5-diphenyltetrazolium bromide] (Sigma-Aldrich) method was used. This method evaluates the cell viability by the activity of mitochondrial succinate dehydrogenase enzyme that cleaves the tetrazolium salt to form formazan crystals in living cells. […]
Initially, cells obtained by washing the peritoneal cavity of the mice with 10 mL of PBS pH 7.2 at 4 °C, centrifuged at 400 g for 10 min and suspended with 1 mL of RPMI 1640 medium were quantified at Neubauer chamber with 0.05% of nigrosin solution. […] The formazan crystals were solubilized with 50 μL of DMSO/well and the absorbance obtained in spectrophotometer (Spectra Max® Plus 384) with 550 nm. […]

Consider `COc1cc(/C=C/C(=O)N2CCC=CC2=O)cc(OC)c1OC` [Compound 1, 1-[(E)-3-(3,4,5-trimethoxyphenyl)prop-2-enoyl]-2,3-dihydropyridin-6-one], for which the “Selectivity Index (SI) = CC50/IC50, L. amazonensis” value in data set [1] (CC50 peritoneal cells 6 h / IC50 L. amazonensis 6 h) came to 1.3. Moreover, the “Inhibitory activity relative to piperidine analogue (fold)” value in data set [1] (L. amazonensis promastigotes, fold superior to piperidine analogue (IC50 2297.9 μM)) came to 4.07 fold. Also, the IC50 is 564 µM and 179 µg/mL in data set [1] (Leishmania amazonensis, 6 h, read-out: Estimated IC50 L. amazonensis 6 h); 19.5 µM and 6.2 µg/mL in data set [2] (48 h, read-out: Estimated IC50 P. falciparum 48 h); 10.1 µM and 3.2 µg/mL in data set [2] (72 h, read-out: Estimated IC50 P. falciparum 72 h). Besides, the inhibition at 64 µg/mL in data set [2] (48 h, read-out: Inhibition of growth of parasites (P. falciparum)) worked out at 100%. Also, in data set [2] (72 h, read-out: Inhibition of growth of parasites (P. falciparum)), the inhibition at 8 µg/mL came to 100%. Also, in data set [3], the CC50 at 6 h is 731 µM and 232 µg/mL.

Regarding `COc1cc(C=CC(=O)N2CCCCC2)cc(OC)c1OC` [piperidine analogue], the IC50 in data set [1] (previous screening, data not shown, read-out: IC50 on growth of L. amazonensis promastigotes) amounted to 2300 µM.

Consider `CNC[C@H](O)[C@@H](O)[C@H](O)[C@H](O)CO.[O]=[Sb](=[O])[OH]` [N-metilglucamine, antimoniate of N-metilglucamine, reference compound], for which the “Inhibition of the parasites (L. amazonensis)” value in data set [1] (positive control, 4 μg/mL, 6 h incubation) is 55.4%.

For `C[C@H]1[C@H](OC(=O)CCC(=O)O)O[C@@H]2O[C@@]3(C)CC[C@H]4[C@H](C)CC[C@@H]1[C@@]24OO3` [artesunate, reference compound], the inhibition at 0.008 µg/mL in data set [2] (48 h incubation, read-out: Inhibition of the parasites (P. falciparum) 48 h) is 79.8%; in data set [2] (72 h incubation, read-out: Inhibition of the parasites (P. falciparum) 72 h) it was 90%.
